Measurements published in patent publication US20040214803A1, “Use of vitamin d3 analogue for the treatment of autoimmune diabetes” (priority 2001, published 2004).

What was measured:
[1] = test system: pancreas-infiltrating cells; experiment: Cytofluorimetric analysis of pancreas-infiltrating cells; format: in vivo, mouse; conditions: among 8 week-old, vehicle-treated and treated mice at 30 weeks
Description: After removal of all visible pancreatic lymph nodes, pancreata were individually digested in 3 ml HBSS containing 1 mg/ml collagenase IV (Sigma), by shaking (200 rpm) at 37° C. for 15 min. Single cell suspensions were collected after diluting the enzyme with ice-cold HBSS containing 5% FCS (FETAL CALF SERUM) and removal of the aggregates by settling for 2 min on ice. Aggregates were further digested with collagenase IV at 0.5 mg/ml for 10 min, and at 0.25 mg/ml for 6 min. Single cell suspensions were washed three times, and passed over a MASC Pre-separation filter (Miltenyi Biotec) to remove cell aggragetes and clumps. […]
Single-cell suspensions of pancreas-infiltrating, spleen or lymph node cells were incubated with anti-CD4 mAb-coated Microbeads (Miltenyi Biotec) and applied onto Mini-MACS columns (Miltenyi Biotec). […] Cells were analyzed with a FACScan flow cytometer equipped with CellQuest software (Becton Dickinson, Mountain View, Calif.).
B. Consecutive sections of the same islets were stained with anti-CD4, anti-CD8, anti-B220, anti-CD11b (Mac-1), and anti-CD11c (N418) mAbs. […] Pancreas-infiltrating cells isolated from untreated 8 week-old NOD mice, vehicle-treated and Compound A treated NOD mice at 30 weeks of age were stained with mAbs specific for the indicated surface molecules and analyzed by flow cytometry. […]

CD4+ cells = experiment: Proliferation and IFN-γ secretion of CD4+ cells following TCR ligation; format: in vivo, mouse
Description: Single cell suspensions from pancreatic lymph nodes or spleen were incubated with anti-CD4 mab-coated Microbeads (Miltenyi Biotec) and applied onto Mini-MACS columns (Miltenyi Biotec). Purified CD4^+ cells (6×10^5/well) were cultured for 48 h in round-bottom 96-well plates (Costar) pre-coated with 3 μg/ml purified anti-TCR mAb (ATCC HB 218; American Type Culture Collection, Manassas, Va.) with or without 100 U/ml IL-2 and/or 10 μg/ml anti-CD28 mAb. Cultures were performed in synthetic HL-1 medium (Ventrex Laboratories, Portland, Me.) supplemented with 2 mM L-glutamine and 50 μg/ml gentamicin (Sigma). To measure cell proliferation, cultures were pulsed 8 h before harvesting with 1 μCi [^3H]TdR ([…]; Radiochemical Center, Amersham, U.K.). Incorporation of [^3H]TdR was measured by liquid scintillation spectrometry. Alternatively, splenic or pancreatic lymph node CD4^+CD25^+ and CD4^+CD25^− cells were sorted with MultiSort Kit (Miltenyi Biotec, Auburn, Calif.).
Cytokines were quantified by two-sites ELISA. IFN-γ was determined using paired mAb from PharMingen (San Diego, Calif.). For capture, the mAb was AN-18.17.24. Samples were titrated and incubated overnight at 4° C. To detect bound IFN-γ plates were then incubated with biotinylated XMG1.2 mAb. […] The plates were washed again and incubated with the developing substrate p-nitrophenylphosphate disodium (Sigma) in diethanolamine buffer (pH 9.6; 100 μl/well). The reaction was stopped by adding 50 μl/well NaOH 3N, and absorbance was read at 405 nm. ELISA for IL-12p75 was performed as described (Gately, M. K., et al., Current Protocols Immunol. 1995, 3, 15:6.16.11-16.16.15). Cytokines were quantified from two to three titration points using standard curves generated by purified recombinant mouse cytokines and results expressed as cytokine concentration in ng or pg/ml. Detection limits were 15 pg/ml for both cytokines.
FIG. 5. (page 5/9) Proliferation and IFN-γ secretion following TCR ligation. Splenic and pancreatic lymph node CD4^+ cells from untreated 8 week-old (□) or 20 week-old NOD mice treated 5×/week from 8 to 16 weeks of age with vehicle (□) or with 0.03 μg/KgCompound A (▪) were positively selected and stimulated (6×10^5 cells/well) with plate-bound anti-TCR mAb (10 μg/ml) in the presence of 100 U/ml IL-2 and/or 5 μg/ml anti-CD28 mAb. A. Cells were pulsed with [^3H]-thymidine during the last 8 hrs of a 48 h culture. Data are presented as mean ±SE of thymidine incorporation (Δ cpm) from triplicate cultures, background values were 790±100 cpm. B. After 48 h of culture, IFN-γ secretion was quantified by ELISA. Results, presented as mean ±SE of triplicate cultures, are from one representative experiment out of four performed.

[2] = pancreatic lymph node CD4+ cells
[3] = pancreatic lymph node CD4+ cells from 20 week-old mice

C[C@H](C/C=C\C(O)(C(F)(F)F)C(F)(F)F)C1=CC[C@H]2/C(=C/C=C3C[C@@H](O)C[C@H](O)C3)CCC[C@]12C [Compound A, 1,25-dihydroxy-16,23Z-diene-26,27-hexafluoro-19-nor vitamin D3]
percentage of CD4+, CD8+, B220+, CD11b+ and CD11c+ pancreas-infiltrating cells [1]: no difference | IFN-γ secretion after addition of IL-2 and/or anti-CD28 mAb (CD4+ cells; [2]): restored | proliferation after addition of IL-2, alone or together with anti-CD28 mAb (CD4+ cells; [2]): not restored | proliferation to insolubilized anti-TCR mAb vs age-matched controls (CD4+ cells; [3]): four times less | proliferation to insolubilized anti-TCR mAb vs cells from 8 week-old mice (CD4+ cells; [3]): 10 times less
